Measured values as given in BindingDB's records for patent US20250197375 (Kineta, 2025).
pIC50: −log10 of the molar value.

Molecular target: T1, 1-phosphatidylinositol 3-phosphate 5-kinase [S696N,L932S,Q995L,T998S,S1033A,Q1183K] (Homo sapiens, UniProt Q9Y2I7, L932S/Q1183K/Q995L/S1033A/S696N/T998S)
T1 construct: gene PIKFYVE
Experiment: PIKfyve Inhibitory Activity Assay
Description: PIKfyve Biochemical Assay. The biochemical PIKFyve inhibition assays were run by Cama Biosciences according to proprietary methodology based on the Promega ADP-Glo™ Kinase assay. […] GST-PIKFYVE was purified by using glutathione sepharose chromatography and used in an ADP-Glo™ Kinase assay (Promega). Reactions were set up by adding the test compound solution, substrate solution, ATP solution and kinase solution, each at 4× final concentrations. Reactions were prepared with assay buffer (50 mM MOPS, 1 mM DTT, pH7.2), mixed, and incubated in black 384 well polystyrene plates for 1 hour at room temperature. ADP-Glo™ reagent was then added for 40 minutes, followed by kinase detection reagent for an additional 40 minutes. The kinase activity was evaluated by detecting relative light units on a luminescence plate reader. Samples were run in duplicate from 10 μM to 3 nM. […] IC50 values were calculated from concentration versus percent inhibition curves by fitting to a four-parameter logistic curve.

T1 sequence (Q9Y2I7 2-2098 S696N/L932S/Q995L/T998S/S1033A/Q1183K limits assumed): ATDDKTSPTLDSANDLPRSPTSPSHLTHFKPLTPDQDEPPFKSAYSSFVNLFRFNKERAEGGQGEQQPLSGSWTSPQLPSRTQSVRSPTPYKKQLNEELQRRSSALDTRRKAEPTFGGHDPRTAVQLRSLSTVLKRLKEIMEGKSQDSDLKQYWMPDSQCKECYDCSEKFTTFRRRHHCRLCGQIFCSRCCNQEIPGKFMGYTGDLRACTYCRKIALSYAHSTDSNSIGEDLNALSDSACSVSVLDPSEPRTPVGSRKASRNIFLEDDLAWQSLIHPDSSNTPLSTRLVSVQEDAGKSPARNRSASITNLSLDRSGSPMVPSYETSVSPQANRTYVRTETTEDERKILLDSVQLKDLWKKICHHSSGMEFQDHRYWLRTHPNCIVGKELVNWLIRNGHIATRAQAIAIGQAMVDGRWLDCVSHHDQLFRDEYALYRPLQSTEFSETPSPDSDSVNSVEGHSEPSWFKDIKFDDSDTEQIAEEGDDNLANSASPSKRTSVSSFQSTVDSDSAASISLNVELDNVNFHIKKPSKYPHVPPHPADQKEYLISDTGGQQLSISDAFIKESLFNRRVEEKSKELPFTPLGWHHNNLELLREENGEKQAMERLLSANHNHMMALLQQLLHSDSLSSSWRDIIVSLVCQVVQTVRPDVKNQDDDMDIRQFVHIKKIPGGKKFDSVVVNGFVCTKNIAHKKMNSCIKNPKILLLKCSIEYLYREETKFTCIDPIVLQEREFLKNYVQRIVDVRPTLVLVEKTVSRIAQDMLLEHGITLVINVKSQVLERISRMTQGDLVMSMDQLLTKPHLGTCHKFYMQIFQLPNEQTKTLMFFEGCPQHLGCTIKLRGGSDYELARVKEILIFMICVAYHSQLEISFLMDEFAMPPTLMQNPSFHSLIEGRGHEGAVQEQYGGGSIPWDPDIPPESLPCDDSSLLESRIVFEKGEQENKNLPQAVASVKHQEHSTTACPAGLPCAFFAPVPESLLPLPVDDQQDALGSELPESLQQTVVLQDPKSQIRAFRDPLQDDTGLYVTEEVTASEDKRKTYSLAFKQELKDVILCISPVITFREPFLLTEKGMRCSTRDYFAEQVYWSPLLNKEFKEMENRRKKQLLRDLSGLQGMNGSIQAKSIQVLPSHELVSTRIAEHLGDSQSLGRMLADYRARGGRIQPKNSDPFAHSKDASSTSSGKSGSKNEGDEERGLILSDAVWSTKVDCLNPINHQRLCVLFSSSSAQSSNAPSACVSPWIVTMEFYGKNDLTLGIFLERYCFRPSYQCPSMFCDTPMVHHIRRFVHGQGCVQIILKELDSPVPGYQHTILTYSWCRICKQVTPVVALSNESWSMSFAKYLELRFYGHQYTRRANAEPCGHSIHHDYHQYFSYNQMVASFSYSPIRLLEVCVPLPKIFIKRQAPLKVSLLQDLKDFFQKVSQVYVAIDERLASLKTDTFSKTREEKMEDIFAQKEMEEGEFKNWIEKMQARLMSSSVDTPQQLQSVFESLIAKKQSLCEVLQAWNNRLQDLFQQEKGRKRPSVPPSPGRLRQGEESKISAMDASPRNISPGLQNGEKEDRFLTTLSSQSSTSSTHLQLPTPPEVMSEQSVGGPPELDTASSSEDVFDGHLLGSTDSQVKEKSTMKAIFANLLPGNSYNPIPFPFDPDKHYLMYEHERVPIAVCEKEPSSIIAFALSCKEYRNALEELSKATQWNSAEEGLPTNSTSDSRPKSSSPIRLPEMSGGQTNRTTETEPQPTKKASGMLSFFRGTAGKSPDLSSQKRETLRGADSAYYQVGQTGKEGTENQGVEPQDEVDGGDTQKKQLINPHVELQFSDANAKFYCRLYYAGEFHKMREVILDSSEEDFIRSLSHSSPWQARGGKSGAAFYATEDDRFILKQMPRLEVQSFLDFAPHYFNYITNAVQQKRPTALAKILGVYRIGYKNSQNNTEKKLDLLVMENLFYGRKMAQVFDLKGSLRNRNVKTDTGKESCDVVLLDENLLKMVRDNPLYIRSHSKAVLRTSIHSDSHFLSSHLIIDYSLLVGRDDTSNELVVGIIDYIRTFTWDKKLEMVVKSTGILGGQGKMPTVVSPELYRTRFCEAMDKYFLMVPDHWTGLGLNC

Structure (SMILES): CN(C)C(=O)c1c(Nc2ccncc2)nc(N2CCOCC2)nc1-c1cccc(-c2ccn(C)n2)c1 [US20250197375, Compound 66]
- pIC50: > 8.00
